{"source": "patent US7060486B2", "about": "“Inhibition of sulfate-reducing-bacteria-mediated degradation using bacteria which secrete antimicrobials” (priority 1998, dated 2006)", "key": {"[1]": {"tested_on": "P. fragi K", "test": "Growth of P. fragi K in overnight suspension cultures with antimicrobials", "assay_type": "cell-based", "conditions": "100 μg/mL, overnight suspension culture"}, "[2]": {"tested_on": "SRB (D. vulgaris) on 304 stainless steel", "test": "Continuous reactor with 304 stainless steel and SRB, electrochemical impedance spectroscopy", "conditions": "100 μg/mL added to P. fragi K biofilm 24 hours before D. vulgaris", "method": "Batch culture corrosion experiments using SAE 1018 mild steel coupons (2.5 cm diameter, 1.2 mm thick) were performed in triplicates in 250 mL Erlenmeyer flasks at 30° C. without shaking as described previously (Jayaraman et al., 1997a). A continuous reactor (Jayaraman et al., 1997c) was also used to develop biofilms on 304 stainless steel and monitor corrosion using electrochemical impedance spectroscopy (EIS) in a minimum of two independent reactors using a Solarton-Schlumberger electrochemical measurement unit (SI 1280, Schlumberger Technical Instruments Division, San Jose, Calif.) interfaced to a Macintosh computer (PowerMac 7100/80, Apple Computers, Cupertino, Calif.) running EISIS electrochemical experimentation software (University of California, Irvine) (similar commercial software, THALES, can also be used). The open circuit potential (OCP) was measured as the potential between the metal specimen and a Ag/AgCl reference electrode, and the polarization resistance (Rp) was determined as the low-frequency value of the impedance (where the imaginary part of the impedance was zero or negligible). Continuous culture corrosion rates were estimated as the inverse of the polarization resistance (Macdonald, D. D. and M. C. H. McCubre, Applications of impedance spectroscopy, p. 262–267. In J. R. Macdonald (ed.), Impedance spectroscopy: Emphasizing solid materials and systems, John Wiley & Sons, New York (1987); Stem, M., Journal of Electrochemical Society, 105(11):638–647 (1958)).\nA continuous reactor was used to develop biofilms on metal surfaces as previously described (Jayaraman et al., 1997c). Electrochemical impedance spectroscopy (EIS) was used to obtain impedance data in at least duplicate experiments using a Solarton-Schlumberger electrochemical measurement unit (SI 1280, Schlumberger Technical Instruments Division, San Jose, Calif.) interfaced to a Macintosh computer (PowerMac 7100/80, Apple Computers, Cupertino, Calif.) running EISIS electrochemical experimentation software (University of California, Irvine) (THALES, a similar commercial software, can also be used). The open-circuit potential (OCP) was measured as the potential between the metal specimen and the reference electrode (Ag/AgCl), and the polarization resistance was determined as the dc limit of the impedance using the ANALEIS software developed by Mansfeld et al. (ASTM Special Technical Protocol 1154:186 (1992)). […]"}, "[3]": {"tested_on": "Gram-negative bacteria", "conditions": "cited from earlier work"}, "[4]": {"tested_on": "SRB (D. vulgaris) on SAE 1018 mild steel", "test": "Continuous reactor with SAE 1018 mild steel and SRB, electrochemical impedance spectroscopy", "source_text": "A continuous reactor was used to develop biofilms on metal surfaces as previously described (Jayaraman et al., 1997c). Electrochemical impedance spectroscopy (EIS) was used to obtain impedance data in at least duplicate experiments using a Solarton-Schlumberger electrochemical measurement unit (SI 1280, Schlumberger Technical Instruments Division, San Jose, Calif.) interfaced to a Macintosh computer (PowerMac 7100/80, Apple Computers, Cupertino, Calif.) running EISIS electrochemical experimentation software (University of California, Irvine) (THALES, a similar commercial software, can also be used). The open-circuit potential (OCP) was measured as the potential between the metal specimen and the reference electrode (Ag/AgCl), and the polarization resistance was determined as the dc limit of the impedance using the ANALEIS software developed by Mansfeld et al. (ASTM Special Technical Protocol 1154:186 (1992)). Continuous culture corrosion rates were estimated from the experimental polarization resistance Rp based on the Stern-Geary equation Rp=B/Icorr, where B is a parameter depending on the Tafel slopes and icorr is the corrosion current density which can be converted into a corrosion rate using Faraday's law (Mansfeld, F., The polarization resistance technique for measuring corrosion currents, In Fontana, M. G., Staehle, R. W. (ed.), Advances in Corrosion Science and Technology, Plenum Press, New York (1976)).\nA 3% (vol/vol) SRB inoculum (culture age 24–48 hours) was added to the reactor after 3 to 5 days of aerobic biofilm development. […] All antimicrobials were simultaneously added to the nutrient feed and the reactor at appropriate concentrations."}, "[5]": {"tested_on": "D. gigas (ATCC 19364)", "test": "SRB inhibitory assay: viability after one-hour exposure, MPN technique", "assay_type": "cell-based", "method": "(§1) D. vulgaris (ATCC 29579) and D. gigas (ATCC 19364) were obtained from the American Type Culture Collection and cultivated in 15 mL screwcap tubes with 10 mL of modified Baar's medium (ATCC medium 1249) supplemented with 100 μL each of the oxygen-scavengers 4% sodium sulfide and Oxyrase (Oxyrase Inc., Mansfeld, Ohio). Initial cultures were grown from −85° C. glycerol stocks; all subsequent cultures were grown with a 3% inoculum from the initial culture maintained at 30° C. without shaking. […] SRB were also cultured periodically in the presence of 0.1% ferrous ammonium sulfate, and the presence of these sulfate-reducers was confirmed by the detection of black iron sulfide in the culture tubes. The desulfoviridin assay was also performed after each MPN assay to confirm the presence of D. vulgaris or D. gigas by its red color under UV light due to the release of the chromophore of the pignment desulfoviridin. (Postgate, 1984).\n(§2) For determining the viability indices (Romeo, et al., 1988) of SRB, a late-exponential phase culture (O.D600 0.16 to 0.19 which corresponded to an initial cell number of 5–9×10^4 cells/mL) was exposed to various concentrations of antimicrobials for 1 hour at 30° C. One mL of cells was harvested, washed once in fresh modified Baar's medium to remove cellular debris, and resuspended in 1 mL of fresh modified Baar's medium supplemented with 10 μL each of Oxyrase (Oxyrase Inc., Mansfeld, Ohio) and 4% sodium sulphide. Aliquots of 450 μL were dispensed in 500 μL sterile eppendorf tubes and appropriate amounts of antimicrobials added and incubated at 30° C. The effectiveness of treatment was determined by the multiple-tube most-probable-number (MPN) fermentation technique. (Anonymous. Multiple-tube fermentation technique for members of the coliform group, pp. 9–45 to 9–51. In A. E. Greenberg, L. S. Clesceri, and A. D. Eaton (eds.), Standard Methods for the Examination of Water and Wastewater, 18 ed. American Public Health Association, American Water Works Association, and Water Pollution Control Federation, New York (1992)) (hereafter, Greenberg, 1992).\n(§3) The MPN test for enumerating SRB was performed in three 12 mL tubes with a 1000 μL inoculum of SRB, three 12 mL tubes with a 500 μL inoculum, and three 12 mL tubes with a 100 μL inoculum. All nine tubes contained a final volume of 10 mL of modified Baar's medium supplemented with 100 μL each of 4% sodium sulfide and Oxyrase (Oxyrase Inc., Mansfeld, Ohio). The tubes were monitored for 72 hours to determine the number of tubes that were positive for growth. Growth was determined by the increase in culture turbidity, and the MPN index/mL was calculated using the Thomas formula. (Greenberg 1992)."}, "[6]": {"tested_on": "D. vulgaris (ATCC 29579)", "test": "SRB inhibitory assay: viability after one-hour exposure, MPN technique", "assay_type": "cell-based", "method": "as §1, §2, §3"}}, "note": "Square brackets hold non-standard residues; d marks the D form. Peptide text beside a SMILES is read from it. Orn = NCCC[C@H](N)C(=O)O"}
{"compound": "CC(C)C[C@@H]1NC(=O)[C@H](CCCN)NC(=O)[C@H](C(C)C)NC(=O)[C@@H]2CCCN2C(=O)[C@@H](Cc2ccccc2)NC(=O)[C@H](CC(C)C)NC(=O)[C@H](CCCN)NC(=O)[C@H](C(C)C)NC(=O)[C@@H]2CCCN2C(=O)[C@@H](Cc2ccccc2)NC1=O", "note": "[gramicidin S] (cyclo(V[Orn]L[dF]PV[Orn]L[dF]P))", "values": [{"measurement": "growth of P. fragi K, in words", "setting": "[1]", "value": "grew to saturation"}, {"measurement": "effect on D. vulgaris, in words", "setting": "[2]", "value": "completely effective in inhibiting the growth of D. vulgaris"}, {"measurement": "concentration that completely inhibits growth", "setting": "[3]", "value": "3 to 12.5", "unit": "µg/mL"}, {"measurement": "effect on D. vulgaris, in words", "setting": "[4]; 100 μg/mL added to P. fragi K biofilm 24 hours before D. vulgaris", "value": "the onset of D. vulgaris-induced corrosion of mild steel was delayed"}, {"measurement": "time after D. vulgaris addition without change / increase in Rp", "setting": "[4]; 100 μg/mL added to P. fragi K biofilm before D. vulgaris", "value": "≥ 80", "unit": "h"}, {"measurement": "reduction of viability", "setting": "[5]; D. gigas, 1 h, 25 μg/mL", "value": "92–96%"}, {"measurement": "concentration with inhibitory effect", "setting": "[5]; this study", "value": "50 to 100", "unit": "µg/mL"}, {"measurement": "reduction of viability", "setting": "[6]; D. vulgaris, 1 h, 100 μg/mL", "value": 93, "unit": "%"}, {"measurement": "concentration with inhibitory effect", "setting": "[6]; this study", "value": "50 to 100", "unit": "µg/mL"}]}
